Experimental data as given in ChEMBL document CHEMBL1156344, “New bisdesmosidic triterpene saponins from the roots of Pulsatilla chinensis” (J Nat Prod, 2001).
The source made the active and inactive calls. No cut-off for these calls is given here.

System: HL-60
Assay: Cytotoxicity against human HL60 cells at 10 ug/mL by MTT assay
Format: functional, cell-based

In the case of `C=C(C)[C@@H]1CC[C@]2(C(=O)O[C@@H]3O[C@H](CO[C@@H]4O[C@H](CO)[C@@H](O[C@@H]5O[C@@H](C)[C@H](O)[C@@H](O)[C@H]5O)[C@H](O)[C@H]4O)[C@@H](O)[C@H](O)[C@H]3O)CC[C@]3(C)[C@H](CC[C@@H]4[C@@]5(C)CC[C@H](O[C@@H]6OC[C@H](O[C@@H]7O[C@H](CO)[C@@H](O[C@@H]8O[C@H](CO)[C@@H](O)[C@H](O)[C@H]8O)[C@H](O)[C@H]7O)[C@H](O)[C@H]6O[C@@H]6O[C@@H](C)[C@H](O)[C@@H](O)[C@H]6O)[C@@](C)(CO)[C@@H]5CC[C@]43C)[C@@H]12`, the Activity is reported as “inactive”.
For `C=C(C)[C@@H]1CC[C@]2(C(=O)O[C@@H]3O[C@H](CO[C@@H]4O[C@H](CO)[C@@H](O[C@@H]5O[C@@H](C)[C@H](O)[C@@H](O)[C@H]5O)[C@H](O)[C@H]4O)[C@@H](O)[C@H](O)[C@H]3O)CC[C@]3(C)[C@H](CC[C@@H]4[C@@]5(C)CC[C@H](O[C@@H]6OC[C@H](O[C@@H]7O[C@H](CO)[C@@H](O)[C@H](O)[C@H]7O)[C@H](O)[C@H]6O[C@@H]6O[C@@H](C)[C@H](O)[C@@H](O)[C@H]6O)[C@@](C)(CO)[C@@H]5CC[C@]43C)[C@@H]12`, the Activity was “inactive”.
In the case of `C=C(C)[C@@H]1CC[C@]2(C(=O)O[C@@H]3O[C@H](CO[C@@H]4O[C@H](CO)[C@@H](O[C@@H]5O[C@@H](C)[C@H](O)[C@@H](O)[C@H]5O)[C@H](O)[C@H]4O)[C@@H](O)[C@H](O)[C@H]3O)CC[C@]3(C)[C@H](CC[C@@H]4[C@@]5(C)CC[C@H](O[C@@H]6OC[C@H](O)[C@H](O)[C@H]6O)[C@@](C)(CO)[C@@H]5CC[C@]43C)[C@@H]12`, the Activity is reported as “inactive”.
With `C=C(C)[C@@H]1CC[C@]2(C(=O)O[C@@H]3O[C@H](CO[C@@H]4O[C@H](CO)[C@@H](O[C@@H]5O[C@@H](C)[C@H](O)[C@@H](O)[C@H]5O)[C@H](O)[C@H]4O)[C@@H](O)[C@H](O)[C@H]3O)CC[C@]3(C)[C@H](CC[C@@H]4[C@@]5(C)CC[C@H](O[C@@H]6OC[C@H](O)[C@H](O)[C@H]6O[C@@H]6O[C@@H](C)[C@H](O)[C@@H](O)[C@H]6O)C(C)(C)[C@@H]5CC[C@]43C)[C@@H]12` the Activity was “inactive”.
For `C=C(C)[C@@H]1CC[C@]2(C(=O)O)CC[C@]3(C)[C@H](CC[C@@H]4[C@@]5(C)CC[C@H](O[C@@H]6OC[C@H](O)[C@H](O)[C@H]6O[C@@H]6O[C@@H](C)[C@H](O)[C@@H](O)[C@H]6O)[C@@](C)(CO)[C@@H]5CC[C@]43C)[C@@H]12`, the Activity was “inactive”.
For `C=C(C)[C@@H]1CC[C@]2(C(=O)O[C@@H]3O[C@H](CO[C@@H]4O[C@H](CO)[C@@H](O[C@@H]5O[C@@H](C)[C@H](O)[C@@H](O)[C@H]5O)[C@H](O)[C@H]4O)[C@@H](O)[C@H](O)[C@H]3O)CC[C@]3(C)[C@H](CC[C@@H]4[C@@]5(C)CC[C@H](O[C@@H]6OC[C@H](O)[C@H](O)[C@H]6O[C@@H]6O[C@@H](C)[C@H](O)[C@@H](O)[C@H]6O)[C@@](C)(CO)[C@@H]5CC[C@]43C)[C@@H]12`, the Activity was “inactive”.
With `C[C@@H]1O[C@@H](O[C@H]2[C@H](O[C@H]3CC[C@@]4(C)[C@@H](CC[C@]5(C)[C@@H]4CC[C@@H]4[C@H]6[C@H](C(C)(C)O)CC[C@]6(C(=O)O[C@@H]6O[C@H](CO[C@@H]7O[C@H](CO)[C@@H](O[C@@H]8O[C@@H](C)[C@H](O)[C@@H](O)[C@H]8O)[C@H](O)[C@H]7O)[C@@H](O)[C@H](O)[C@H]6O)CC[C@]45C)[C@]3(C)CO)OC[C@H](O)[C@@H]2O)[C@H](O)[C@H](O)[C@H]1O` the Activity was “inactive”.
